Patent publication US3947466A, “Intermediates and process for the production of certain triazolobenzodiazepines” (priority 1974, dated 1976)
“Also recorded” adds a separate entry of the source. Structures can show the parent of a compound that is named as a salt. Where two headings read alike, the source gives them in different places.

Legend:
LD50 values in mice = settings: mouse, in vivo
oxotremorine [1] = settings: cited from earlier work; for effect on oxotremorine-induced temperature decrease / hypothermic response / hypothermic response: mice, background statement
[2] = test system: apomorphine hydrochloride; experiment: animal or person; settings: Mus musculus, ip, 0.5 h, read-out: ED50, potentiation of apomorphine gnawing
yohimbine hydrochloride = experiment: animal or person; settings: for ED50: Mus musculus, 2 h, read-out: ED50, yohimbine potentiation (causes 50% of the mice to die); for YO (Yohimbine test): TABLE V
Protocol: (§1) Ten male CF mice, 18-22 g., were injected with the anti-depressant and 30 minutes later with 30 […] hydrochloride (YCl) in saline solution. After two hours, the LD50 were determined.

oxotremorine [3] = experiment: animal or person; assay type: in vivo, mice (male, Strain CF=Carworth Farms); settings: for ED50: Mus musculus, ip, 0.5 h, read-out: ED50, oxotremorine hypothermia antagonism (temperature at least 4° C. higher than control mice); for Oxo (Oxotremorine test): TABLE V
Protocol: Hypothermic tests with oxotremorine: [1-(4-pyrrolidino-2-butynyl)-2-pyrrolidinone].
The present compounds were tested as follows. […] The lowering of the body temperature was measured rectally with an electronic thermometer, before and 30 minutes after drug administration. After the drug administration the mice were kept at 19° C. in cages. A 4° difference between the control mice (oxotremorine alone) and the treated mice (oxotremorine and test compound) was used to indicate the antagonistic action of the test compound.

in vivo = settings: mouse, in vivo, ip
Protocol: as §1

[4] = Dish test: mice remaining in the dish for more than 3 minutes (tranquilization); assay type: in vivo; settings: Mus musculus, ip
Protocol: Dish test: Mice in Petri dishes (10 cm. diameter, 5 cm. high, partially embedded in wood shavings), climb out in a very short time, when not treated. Mice remaining in the dish for more than 3 minutes indicates tranquilization.

[5] = Chimney test: ability of mice to back up and out of a vertical glass cylinder within 30 seconds; assay type: in vivo; settings: Mus musculus, ip
Excerpt: The test determines the ability of mice to back up and out of a vertical glass cylinder within 30 seconds. At the effective dosage, 50% of the mice failed doing it.

nicotine salicylate = experiment: animal or person; assay type: in vivo, mice; settings: for ED50: Mus musculus, ip
Protocol: Nicotine antagonism test: Mice in a group of 6 are injected with the test compound, 8-chloro-1-[(dimethylamino)methyl]-6-phenyl-4H-s-triazolo[4,3-a][1,4]benzodiazepine. Thirty minutes later the mice, including control (untreated) mice, are injected with nicotine salicylate (2 mg./kg.). The control mice show overstimulation, i.e., (1) running convulsions (2) tonic extensor fits; followed by (3) death.

[6] = Pedestal test: tranquilized mice stay on the pedestal for more than 1 minute; assay type: in vivo; settings: Mus musculus, ip
Protocol: Pedestal Test: The untreated mouse leaves the pedestal in less than a minute to climb back to the floor of the standard mouse box. Tranquilized mice will stay on the pedestal for more than 1 minute. The ED50 (intraperitoneal administration) was 0.8 mg./kg.

[7] = test system: apomorphine hydrochloride; settings: TABLE V
strychnine sulfate = experiment: animal or person; assay type: in vivo, mice
Protocol: The test consists in orally administering into groups of 6 mice the test compound, and 30 minutes later 3 mg./kg. strychnine sulfate intraperitoneally. The survivors after 4 hours reflect the activity of the compound as a muscle relaxant and antispasmodic.

[8] = mice, route not given, TABLE IV

Which results are given for `CN(C)CCC=C1c2ccccc2COc2ccccc21` [Doxepine, reference compound]?
LD50 (LD50 values in mice; [8]): 126 mg/kg; effect on oxotremorine-induced temperature decrease / hypothermic response (oxotremorine [1]): antagonized; ED50 [2]: 17.7 mg/kg; ED50 (yohimbine hydrochloride): 17.7 mg/kg; ED50 (oxotremorine [3]): 14.9 mg/kg

Which hypothermic response (oxotremorine [1]) does the source give for `COc1cc2c(cc1OC)C1CC(=O)C(CC(C)C)CN1CC2` (stereo not shown) [tetrabenazine] here?
Its hypothermic response is “produces hypothermic responses in mice”.

What does the source list for `COC(=O)[C@@H]1[C@H]2C[C@H]3c4[nH]c5ccccc5c4CCN3C[C@@H]2CC[C@@H]1O` [yohimbine hydrochloride]?
LD50 (in vivo): 45 mg/kg; lethality of yohimbine hydrochloride alone (yohimbine hydrochloride; 30 mg./kg. (30 mg.), mice): non-lethal

For `O=C1CCCN1CC#CCN1CCCC1` [Oxotremorine, 1-(4-pyrrolidino-2-butynyl)-2-pyrrolidinone], which “decrease of body temperature” value (oxotremorine [1]; 0.6 mg./kg. oxotremorine, mouse kept at room temperature) is on record?
The value was “about 13 ° F”.

And the hypothermic response (oxotremorine [1])?
Its hypothermic response is “produces hypothermic responses in mice; also recorded: very pronounced hypothermia”.

Which results are given for `CCN(CC)Cc1nnc2n1-c1ccc(Cl)cc1C(c1ccccc1Cl)=NC2` [8-Chloro-1-[(diethylamino)methyl]-6-(o-chlorophenyl)-4H-s-triazolo[4,3-a][1,4]benzodiazepine]?
ED50 ([4]; read-out: ED50 D): 0.11 mg/kg; ED50 ([5]; read-out: ED50 Ch): 0.63 mg/kg; ED50 (nicotine salicylate; read-out: ED50 Ni): 0.08 mg/kg; ED50 ([6]; read-out: ED50 P): 0.4 mg/kg

With `CN(C)Cc1nnc2n1-c1ccc(Cl)cc1C(c1ccccc1Cl)=NC2` [8-Chloro-1-[(dimethylamino)methyl]-6-(o-chlorophenyl)-4H-s-triazolo[4,3-a][1,4]benzodiazepine] as the compound, how does the “Ap (Apomorphine test)” value [7] read?
The value was 17.8.

And the LD50 (LD50 values in mice; TABLE V)?
The LD50 was over 100 mg/kg.

What about the “YO (Yohimbine test)” value (yohimbine hydrochloride) of the same compound?
Its value is over 30.

What about the ED50 ([4]; read-out: ED50 D) of the same compound?
The ED50 was 0.36 mg/kg.

What about the “Oxo (Oxotremorine test)” value (oxotremorine [3]) of the same compound?
The value was over 30.

And the ED50 ([5]; read-out: ED50 Ch)?
Its ED50 is 0.2 mg/kg.

What about the ED50 (nicotine salicylate; read-out: ED50 Ni) of the same compound?
The ED50 was 0.63 mg/kg.

And the ED50 ([6]; read-out: ED50 P)?
The ED50 was 0.36 mg/kg.

Which ED50 [2] does the source give for `CN(C)CCCN1c2ccccc2CCc2ccccc21` [Imipramine, reference compound] here?
Its ED50 is 17.7 mg/kg.

And the ED50 (yohimbine hydrochloride)?
Its ED50 is 4.4 mg/kg.

What about the ED50 (oxotremorine [3]) of the same compound?
Its ED50 is 5.3 mg/kg.

Which results are given for `CN(C)Cc1nnc2n1-c1ccccc1C(c1ccccc1Cl)=NC2` [1-[(dimethylamino)methyl]-6-(o-chlorophenyl)-4H-s-triazolo-[4,3-a][1,4]benzodiazepine]?
Ap (Apomorphine test) [7]: > 30; LD50 (LD50 values in mice; TABLE V): > 100 mg/kg; YO (Yohimbine test) (yohimbine hydrochloride): > 30; ED50 ([4]; read-out: ED50 D): 0.8 mg/kg; Oxo (Oxotremorine test) (oxotremorine [3]): > 30; ED50 ([5]; read-out: ED50 Ch): 0.35 mg/kg; ED50 (nicotine salicylate; read-out: ED50 Ni): 0.15 mg/kg; ED50 ([6]; read-out: ED50 P): 22 mg/kg

For `CNCCCN1c2ccccc2CCc2ccccc21` [desipramine], which “effect on oxotremorine-induced temperature decrease / hypothermic response” value (oxotremorine [1]) is on record?
Its value is “antagonized”.

With `CN1CCc2cccc3c2[C@H]1Cc1ccc(O)c(O)c1-3` [apomorphine] as the compound, how does the hypothermic response (oxotremorine [1]) read?
Its hypothermic response is “produces hypothermic responses in mice”.

For `CN(C)Cc1nnc2n1-c1ccc(Cl)cc1C(c1ccccc1)=NC2` [8-Chloro-1-[(dimethylamino)methyl]-6-phenyl-4H-s-triazolo[4,3-a][1,4]benzodiazepine], which LD50 (LD50 values in mice; [8]) is on record?
The LD50 was 476 mg/kg.

And the ED50 (strychnine sulfate; Mus musculus, po, 4 h, read-out: effective dosage ED50, antagonism to strychnine)?
Its ED50 is 50 mg/kg.

And the ED50 [2]?
The ED50 was 5.3 mg/kg.

What about the ED50 (yohimbine hydrochloride) of the same compound?
The ED50 was 12.5 mg/kg.

And the ED50 ([4]; read-out: ED50, dish test)?
The ED50 was 0.28 mg/kg.

What about the ED50 (oxotremorine [3]) of the same compound?
The ED50 was 5.3 mg/kg.

What about the ED50 ([5]; read-out: effective intraperitoneal dosage for 50% of mice (ED50), chimney test) of the same compound?
Its ED50 is 2.3 mg/kg.

What about the ED50 (nicotine salicylate; read-out: dosage protecting 50% of the animals against death (nicotine antagonism)) of the same compound?
Its ED50 is 0.11 mg/kg.

What about the ED50 ([6]; read-out: ED50, pedestal test) of the same compound?
Its ED50 is 0.8 mg/kg.

For `NCc1nnc2n1-c1ccc(Cl)cc1C(c1ccccc1)=NC2` [8-Chloro-1-(aminomethyl)-6-phenyl-4H-s-triazolo[4,3-a][1,4]benzodiazepine], which “Ap (Apomorphine test)” value [7] is on record?
Its value is 2.6.

What about the LD50 (LD50 values in mice; TABLE V) of the same compound?
Its LD50 is over 100 mg/kg.

What about the “YO (Yohimbine test)” value (yohimbine hydrochloride) of the same compound?
Its value is 35.4.

And the “Oxo (Oxotremorine test)” value (oxotremorine [3])?
The value was 29.7.

For `CN1[C@@H]2CC[C@H]1C[C@@H](OC(=O)C(CO)c1ccccc1)C2` (stereo partly shown) [atropine], which “effect on oxotremorine-induced temperature decrease / hypothermic response” value (oxotremorine [1]) is on record?
Its value is “blocked”.

With `O=C1C[C@@H]2OCC=C3CN4CC[C@]56c7ccccc7N1[C@H]5[C@H]2[C@H]3C[C@H]46` [strychnine sulfate, reference compound] as the compound, how does the “lethality of strychnine sulfate in control mice” value (strychnine sulfate; 3 mg./kg. intraperitoneally) read?
Its value is “routinely fatal to all the control mice”.

With `CCN(CC)Cc1nnc2n1-c1ccc(Cl)cc1C(c1ccccc1)=NC2` [8-Chloro-1-[(diethylamino)methyl]-6-phenyl-4H-s-triazolo[4,3-a][1,4]benzodiazepine] as the compound, how does the LD50 (LD50 values in mice; [8]) read?
The LD50 was over 100 mg/kg.

And the ED50 [2]?
The ED50 was 14.9 mg/kg.

What about the ED50 (yohimbine hydrochloride) of the same compound?
Its ED50 is 42 mg/kg.

And the ED50 (oxotremorine [3]; mice, oxotremorine 1 mg. i.p., 30 minutes, second TABLE I)?
Its ED50 is 50 mg/kg.

For `CN1CCC[C@H]1c1cccnc1` [nicotine salicylate, reference compound], which “effect of nicotine salicylate in control mice” value (nicotine salicylate; 2 mg./kg., injected) is on record?
Its value is “overstimulation”.
